In one assay the target is T1, JAK2 (Homo sapiens, UniProt O60674).
T1 construct: host or cells: baculovirus expression system
Nature of the assay: Recombinant Human JAK2 Kinase Assay (TRF). It is filed as biochemical. The conditions noted are these: JAK2 kinase inhibition, 0.2 μM ATP; read-out: JAK2 Potency. In short, it runs like this: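 Baculovirus-expressed JAK2 (15 ng/ml) phosphorylated a biotinylated 15-mer peptide captured on Neutravidin-coated plates, in 20 mM HEPES pH 7.2 with 0.2 μM ATP, 1 mM MnCl2, 0.1% BSA and 2.5% DMSO. Reaction ran 20 min at room temperature; phosphopeptide was detected by time-resolved fluorescence with Eu-N1-labelled PY100 antibody.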

Another assay has as its target T2, ALK (Homo sapiens, UniProt Q9UM73).
T2 construct: host or cells: baculovirus expression system
As to the kind of experiment: ALK Kinase Assay (ELISA/TRF, PLC-γ substrate). It is filed as biochemical. The conditions noted are these: ALK kinase inhibition, 1 μM ATP; read-out: ALK Potency. In short, it runs like this:
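Wells were coated with 10 μg/mL phospholipase C-γ substrate in TBS, and the reaction was started by adding 30 ng/ml ALK enzyme and run at 37° C for 15 minutes. Phosphorylated product was detected with Eu-N1-labeled PT66 antibody, and IC50 values came from sigmoidal variable-slope fits of percent inhibition against log concentration.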
On the technique in general: ELISA stands for enzyme-linked immunosorbent assay.

Each structure is given as a SMILES string.

T1 sequence (O60674 whole entry): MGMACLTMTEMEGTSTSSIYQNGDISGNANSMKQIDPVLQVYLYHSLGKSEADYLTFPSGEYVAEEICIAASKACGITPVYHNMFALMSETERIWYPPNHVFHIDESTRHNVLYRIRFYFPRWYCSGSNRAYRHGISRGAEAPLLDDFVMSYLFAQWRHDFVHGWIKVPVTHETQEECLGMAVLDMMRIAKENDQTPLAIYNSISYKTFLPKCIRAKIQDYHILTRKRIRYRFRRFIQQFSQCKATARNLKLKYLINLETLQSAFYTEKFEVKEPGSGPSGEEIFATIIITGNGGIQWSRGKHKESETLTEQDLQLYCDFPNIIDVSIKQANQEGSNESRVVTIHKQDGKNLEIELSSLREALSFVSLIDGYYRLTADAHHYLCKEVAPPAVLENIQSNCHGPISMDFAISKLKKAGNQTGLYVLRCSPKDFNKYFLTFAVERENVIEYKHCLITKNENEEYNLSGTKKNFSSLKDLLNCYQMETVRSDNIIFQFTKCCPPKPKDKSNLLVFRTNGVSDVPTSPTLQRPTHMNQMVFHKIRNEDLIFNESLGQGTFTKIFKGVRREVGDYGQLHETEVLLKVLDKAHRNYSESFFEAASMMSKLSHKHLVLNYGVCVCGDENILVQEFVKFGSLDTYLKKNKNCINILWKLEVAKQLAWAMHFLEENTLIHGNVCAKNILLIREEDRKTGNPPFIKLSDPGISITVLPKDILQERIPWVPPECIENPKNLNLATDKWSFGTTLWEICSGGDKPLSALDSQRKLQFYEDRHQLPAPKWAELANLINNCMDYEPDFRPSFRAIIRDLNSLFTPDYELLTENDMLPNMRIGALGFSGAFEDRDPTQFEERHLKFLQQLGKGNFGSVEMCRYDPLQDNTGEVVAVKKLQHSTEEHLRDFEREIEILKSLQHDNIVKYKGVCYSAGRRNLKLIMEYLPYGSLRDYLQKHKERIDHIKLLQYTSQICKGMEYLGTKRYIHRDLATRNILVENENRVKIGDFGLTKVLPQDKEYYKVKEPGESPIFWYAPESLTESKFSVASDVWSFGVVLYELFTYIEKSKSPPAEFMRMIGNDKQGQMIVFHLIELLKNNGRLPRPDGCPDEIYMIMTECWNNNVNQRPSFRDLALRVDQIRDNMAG
T2 sequence (Q9UM73 19-1620): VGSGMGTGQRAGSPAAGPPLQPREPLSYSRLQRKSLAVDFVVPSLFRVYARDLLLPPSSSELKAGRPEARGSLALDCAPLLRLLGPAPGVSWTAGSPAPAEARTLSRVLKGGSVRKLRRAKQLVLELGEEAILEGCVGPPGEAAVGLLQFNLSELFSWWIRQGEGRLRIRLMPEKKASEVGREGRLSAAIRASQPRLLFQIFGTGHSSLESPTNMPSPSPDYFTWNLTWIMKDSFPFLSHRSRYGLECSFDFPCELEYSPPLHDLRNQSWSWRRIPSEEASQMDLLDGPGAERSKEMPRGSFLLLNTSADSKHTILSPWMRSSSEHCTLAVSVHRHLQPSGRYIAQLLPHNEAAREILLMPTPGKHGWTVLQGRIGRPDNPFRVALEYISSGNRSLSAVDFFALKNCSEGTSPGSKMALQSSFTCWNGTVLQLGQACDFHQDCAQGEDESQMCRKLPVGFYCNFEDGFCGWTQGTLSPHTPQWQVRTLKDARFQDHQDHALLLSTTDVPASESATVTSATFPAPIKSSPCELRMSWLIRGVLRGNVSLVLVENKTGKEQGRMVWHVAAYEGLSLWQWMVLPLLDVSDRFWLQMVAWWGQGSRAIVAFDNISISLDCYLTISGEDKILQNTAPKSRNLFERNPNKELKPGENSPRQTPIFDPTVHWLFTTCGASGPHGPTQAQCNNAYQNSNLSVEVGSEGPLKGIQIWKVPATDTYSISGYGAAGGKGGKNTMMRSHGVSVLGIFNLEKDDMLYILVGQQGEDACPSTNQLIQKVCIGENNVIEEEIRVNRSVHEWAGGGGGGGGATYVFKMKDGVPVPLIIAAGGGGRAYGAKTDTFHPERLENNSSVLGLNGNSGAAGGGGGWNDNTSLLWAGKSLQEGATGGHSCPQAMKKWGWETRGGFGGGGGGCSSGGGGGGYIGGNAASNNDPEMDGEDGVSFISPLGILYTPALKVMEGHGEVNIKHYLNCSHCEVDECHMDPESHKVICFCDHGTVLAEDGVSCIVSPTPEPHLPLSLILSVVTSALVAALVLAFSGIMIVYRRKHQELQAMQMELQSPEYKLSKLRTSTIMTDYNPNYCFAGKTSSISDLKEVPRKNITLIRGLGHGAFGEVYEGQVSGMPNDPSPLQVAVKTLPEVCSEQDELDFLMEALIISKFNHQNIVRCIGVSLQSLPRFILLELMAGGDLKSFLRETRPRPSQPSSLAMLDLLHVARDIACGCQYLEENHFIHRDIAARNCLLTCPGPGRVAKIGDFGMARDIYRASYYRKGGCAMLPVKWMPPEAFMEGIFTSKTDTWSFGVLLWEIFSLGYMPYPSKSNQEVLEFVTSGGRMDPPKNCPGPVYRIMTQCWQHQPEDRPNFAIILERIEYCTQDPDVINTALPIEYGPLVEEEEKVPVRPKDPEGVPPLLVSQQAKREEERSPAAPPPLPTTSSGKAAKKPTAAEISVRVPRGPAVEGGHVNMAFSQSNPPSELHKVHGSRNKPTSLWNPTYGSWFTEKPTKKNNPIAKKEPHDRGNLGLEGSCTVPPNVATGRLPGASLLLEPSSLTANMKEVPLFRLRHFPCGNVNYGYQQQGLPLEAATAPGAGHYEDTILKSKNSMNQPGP

Turning to `CN1CCN(c2ccc(Nc3ncc4ccc(NCc5cccnc5)n4n3)cc2)CC1` [Example 1164, N(2)-[4-(4-Methyl-piperazin-1-yl)-phenyl]-N(7)-pyridin-3-ylmethyl-pyrrolo[2,1-f][1,2,4]triazine-2,7-diamine], the IC50 is below 0.1 µM on JAK2 and 0.1 to 1 µM at ALK.

As for `CN1CCN(c2ccc(Nc3ncc4ccc(NCc5ccncc5)n4n3)cc2)CC1` [Example 1165, N(2)-[4-(4-Methyl-piperazin-1-yl)-phenyl]-N(7)-pyridin-4-ylmethyl-pyrrolo[2,1-f][1,2,4]triazine-2,7-diamine], the figures for the IC50 at JAK2 and on ALK were below 0.1 µM and 1 to 10 µM, respectively.

For the compound `CN1CCN(c2ccc(Nc3ncc4ccc(-c5cccc(N6CCN(C(=O)OC(C)(C)C)CC6)c5)n4n3)cc2)CC1` [Example 1166, 4-(3-{2-[4-(4-Methyl-piperazin-1-yl)-phenylamino]-pyrrolo[2,1-f][1,2,4]triazin-7-yl}-phenyl)-piperazine-1-carboxylic acid tert-butyl ester], the IC50 on JAK2 was below 0.1 µM; at ALK it was 1 to 10 µM.

Regarding `CN1CCN(c2cccc(Nc3ncc4ccc(NCc5ccncc5)n4n3)c2)CC1` [Example 1167, N(2)-[3-(4-Methyl-piperazin-1-yl)-phenyl]-N(7)-pyridin-4-ylmethyl-pyrrolo[2,1-f][1,2,4]triazine-2,7-diamine], the IC50 is 0.1 to 1 µM at JAK2 and above 10 µM at ALK.

Regarding `CN1CCN(c2cccc(Nc3ncc4ccc(NCc5cccnc5)n4n3)c2)CC1` [Example 1168, N-(2)-[3-(4-Methyl-piperazin-1-yl)-phenyl]-N(7)-pyridin-3-ylmethyl-pyrrolo[2,1-f][1,2,4]triazine-2,7-diamine], the figures for the IC50 at JAK2 and on ALK were below 0.1 µM and 1 to 10 µM, respectively.

In the case of `CN1CCN(c2ccc(Nc3ncc4ccc(-c5cccc(N6CCNCC6)c5)n4n3)cc2)CC1` [Example 1169, [4-(4-Methyl-piperazin-1-yl)-phenyl]-[7-(3-piperazin-1-yl-phenyl)-pyrrolo[2,1-f][1,2,4]triazin-2-yl]-amine], the IC50 was below 0.1 µM on JAK2 and 0.1 to 1 µM at ALK.

For `COc1cc(N2CCC(N3CCOCC3)CC2)ccc1Nc1ncc2ccc(-c3cccnc3)n2n1` [Example 1170, [2-Methoxy-4-(4-morpholin-4-yl-piperidin-1-yl)-phenyl]-(7-pyridin-3-yl-pyrrolo[2,1-f][1,2,4]triazin-2-yl)-amine], the IC50 on JAK2 was below 0.1 µM; on ALK, 0.1 to 1 µM.

With `CN(c1ccccc1-c1ccc2cnc(OCCN3CCN(c4ccc(N)cc4)CC3)nn12)S(C)(=O)=O` [Example 1172, N-[2-(2-{2-[4-(4-Amino-phenyl)-piperazin-1-yl]-ethoxy}-pyrrolo[2,1-f][1,2,4]triazin-7-yl)-phenyl]-N-methyl-methanesulfonamide], the IC50 was 1 to 10 µM at JAK2 and above 10 µM at ALK.

Take `CN1CCN(c2ccc(Nc3ncc4ccc(-c5ccccc5OCC(=O)OC(C)(C)C)n4n3)cc2)CC1` [Example 1173, (2-{2-[4-(4-Methyl-piperazin-1-yl)-phenylamino]-pyrrolo[2,1-f][1,2,4]triazin-7-yl}-phenoxy)-acetic acid tert-butyl ester]: the figures for the IC50 at JAK2 and on ALK were below 0.1 µM and 1 to 10 µM, respectively.

Regarding `CS(=O)(=O)c1ccc(-c2ccc3cnc(Nc4ccc5c(c4)NC(=O)C(NC(=O)C(F)(F)F)CC5)nn23)cc1` (stereo not shown) [Example 1174, 2,2,2-Trifluoro-N-{8-[7-(4-methanesulfonyl-phenyl)-pyrrolo[2,1-f][1,2,4]triazin-2-ylamino]-2-oxo-2,3,4,5-tetrahydro-1H-benzo[b]azepin-3-yl}-acetamide], the figures for the IC50 on JAK2 and on ALK were below 0.1 µM and above 10 µM, respectively.

As to `CN(c1ccccc1-c1ccc2cnc(Nc3ccc(N4CCN(CCO)CC4)cc3)nn12)S(C)(=O)=O` [Example 1175, N-[2-(2-{4-[4-(2-Hydroxy-ethyl)-piperazin-1-yl]-phenylamino}-pyrrolo[2,1-f][1,2,4]triazin-7-yl)-phenyl]-N-methyl-methanesulfonamide], the IC50 at JAK2 and at ALK was below 0.1 µM in each case.

Regarding `CN(c1ccccc1-c1ccc2cnc(Nc3ccc(N4CCOCC4)cn3)nn12)S(C)(=O)=O` [Example 1176, N-Methyl-N-{2-[2-(5-morpholin-4-yl-pyridin-2-ylamino)-pyrrolo[2,1-f][1,2,4]triazin-7-yl]-phenyl}-methanesulfonamide], the IC50 was below 0.1 µM at JAK2 and 1 to 10 µM on ALK.

Consider `COc1ccccc1-c1ccc2cnc(Nc3ccc(N4CCN(C)CC4)cn3)nn12` [Example 1177, [7-(2-Methoxy-phenyl)-pyrrolo[2,1-f][1,2,4]triazin-2-yl]-[5-(4-methyl-piperazin-1-yl)-pyridin-2-yl]-amine], for which the values for the IC50 on JAK2 and at ALK were below 0.1 µM and 0.1 to 1 µM, respectively.

In the case of `CN1CCC(c2ccc(Nc3ncc4ccc(-c5ccccc5N(C)S(C)(=O)=O)n4n3)cc2)CC1` [Example 1178, N-Methyl-N-(2-{2-[4-(1-methyl-piperidin-4-yl)-phenylamino]-pyrrolo[2,1-f][1,2,4]triazin-7-yl}-phenyl)-methanesulfonamide], the IC50 on JAK2 and at ALK was below 0.1 µM in each case.

With `CN1CCC(c2ccc(Nc3ncc4ccc(-c5cccnc5)n4n3)cc2)CC1` [Example 1179, [4-(1-Methyl-piperidin-4-yl)-phenyl]-(7-pyridin-3-yl-pyrrolo[2,1-f][1,2,4]triazin-2-yl)-amine], the IC50 at JAK2 is below 0.1 µM; on ALK, 0.1 to 1 µM.

`COc1ccc(-c2ccc3cnc(Nc4ccc(C5CCN(C)CC5)cc4)nn23)cn1` [Example 1180, [7-(6-Methoxy-pyridin-3-yl)-pyrrolo[2,1-f][1,2,4]triazin-2-yl]-[4-(1-methyl-piperidin-4-yl)-phenyl]-amine]: the IC50 on JAK2 was below 0.1 µM; at ALK it was 0.1 to 1 µM.

In the case of `Cn1cc(-c2ccc3cnc(Nc4ccc(N5CCN(CCO)CC5)cc4)nn23)cn1` [Example 1181, 2-(4-{4-[7-(1-Methyl-1H-pyrazol-4-yl)-pyrrolo[2,1-f][1,2,4]triazin-2-ylamino]-phenyl}-piperazin-1-yl)-ethanol], the figures for the IC50 at JAK2 and on ALK were below 0.1 µM and 0.1 to 1 µM, respectively.

On to `CN1CCN(c2ccc(Nc3ncc4ccc(-c5ccccc5OCC(=O)O)n4n3)cc2)CC1` [Example 1182, (2-{2-[4-(4-Methyl-piperazin-1-yl)-phenylamino]-pyrrolo[2,1-f][1,2,4]triazin-7-yl}-phenoxy)-acetic acid], for which the IC50 is below 0.1 µM at JAK2 and 0.1 to 1 µM on ALK.

Turning to `COc1ccccc1-c1ccc2cnc(Nc3ccn(CCN4CCOCC4)n3)nn12` [Example 1183, [7-(2-Methoxy-phenyl)-pyrrolo[2,1-f][1,2,4]triazin-2-yl]-[1-(2-morpholin-4-yl-ethyl)-1H-pyrazol-3-yl]-amine], the results for the IC50 at JAK2 and at ALK were below 0.1 µM and 0.1 to 1 µM, respectively.

`c1cncc(-c2ccc3cnc(Nc4ccn(CCN5CCOCC5)n4)nn23)c1` [Example 1184, [1-(2-Morpholin-4-yl-ethyl)-1H-pyrazol-3-yl]-(7-pyridin-3-yl-pyrrolo[2,1-f][1,2,4]triazin-2-yl)-amine]: the IC50 at JAK2 was below 0.1 µM; on ALK it was above 10 µM.

These data come from patent US8471005B2 (Cephalon, Inc., priority 2008, dated 2013).
